# Measured values published in PubChem BioAssay AID1745844 (Carcinogenic Potency Database (CPDB), 2022).
# Active and inactive are the calls of the source. How the calls were made is not given here.
# Tested on: rodent lifetime carcinogenesis bioassay, tumor incidence TD50
# Assay: carcinogenic potency in animals, long-term in vivo studies, CPDB compilation (AID 1745844)
# Settings: inhaled, dosed 105 weeks, study length 105 weeks
smiles,measurement,setting,value
[O]=[Mo](=[O])=[O],TD50,"mouse, strain B6C3F1, females, site: liver, lesion: hepatocellular adenoma + hepatoblastoma + hepatocellular carcinoma",4450 mg/kg/day
same,TD50,"mouse, strain B6C3F1, females, site: lung, lesion: alveolar/bronchiolar adenoma + alveolar/bronchiolar carcinoma",68.3 mg/kg/day
same,TD50,"mouse, strain B6C3F1, females, site: lung, lesion: alveolar/bronchiolar adenoma",97.8 mg/kg/day
same,TD50,"mouse, strain B6C3F1, females, site: subcutaneous tissue, lesion: sarcoma",162 mg/kg/day
same,TD50,"mouse, strain B6C3F1, males, site: liver, lesion: hepatocellular adenoma + hepatoblastoma + hepatocellular carcinoma",11.7 mg/kg/day
same,TD50,"mouse, strain B6C3F1, males, site: liver, lesion: hepatocellular carcinoma",14.8 mg/kg/day
same,TD50,"mouse, strain B6C3F1, males, site: lung, lesion: alveolar/bronchiolar adenoma + alveolar/bronchiolar carcinoma",3.21 mg/kg/day
same,TD50,"mouse, strain B6C3F1, males, site: lung, lesion: alveolar/bronchiolar carcinoma",4.15 mg/kg/day
same,TD50,"rat, strain Fischer 344, females, site: any site (literature study), lesion: several types, types named in the paper",14 mg/kg/day
same,TD50,"rat, strain Fischer 344, females, site: clitoral gland, lesion: adenoma + carcinoma",5.04 mg/kg/day
same,TD50,"rat, strain Fischer 344, females, site: mammary gland, lesion: adenoma + fibroadenoma",0.77 mg/kg/day (inactive)
same,TD50,"rat, strain Fischer 344, males, site: liver, lesion: hepatocellular adenoma + hepatoblastoma + hepatocellular carcinoma",128 mg/kg/day
same,TD50,"rat, strain Fischer 344, males, site: lung, lesion: alveolar/bronchiolar adenoma + alveolar/bronchiolar carcinoma",21.8 mg/kg/day
same,TD50,"rat, strain Fischer 344, males, site: lung, lesion: alveolar/bronchiolar adenoma",31.6 mg/kg/day
